Laboratory results as given in patent US8076371B2, “Gallium compositions for the treatment of liver cancer and methods of use” (priority 2006, dated 2011).

How the values were obtained:
[1] = tested on: human hepatocellular carcinoma (HCC) cell lines (Hep3B, HepG2, SNU475, and Hep 40); assay: Assessment of apoptotic cell morphology (hematoxylin and eosin, light microscope); format: cell-based; conditions: 30 μM, six days exposure; all four HCC cell lines
Method: (§1) The activity of gallium maltolate and gallium nitrate was studied in vitro on several human hepatocellular carcinoma (HCC) cell lines (Hep3B, HepG2, SNU475, and Hep 40). Further information on these experiments is reported by Chua et al., Anticancer Research 26:1739-1744, 2006.
Assessment of apoptotic cell morphology: After six days exposure to gallium maltolate at either 10 μM or 30 μM, cells were fixed using absolute methanol at −20° C. for 10 min, then stained with hematoxylin and eosin. Cell morphology was then observed with a light microscope.

[2] = tested on: poly(ADP-ribose) polymerase (PARP) in HCC cell lines; assay: Immunoblotting, PARP assay for apoptosis; format: cell-based, human; conditions: HCC cell lines Hep 3B, Hep 40, and SNU475; 10 μM or 30 μM, six days exposure
Method: as §1
(§2) Immunoblotting: Cells were exposed to 10 μM or 30 μM gallium maltolate for six days; whole cell lysates were then prepared and total protein quantified using the Bradford Assay. Approximately 20 μg of protein was electrophoresed on pre-cast gels and transferred onto PVDF membranes. Non-specific sites were blocked by incubation with 5% non-fat milk in TBS-1% Tween solution for 1 hr at room temperature. Proteins were then detected with specific antibodies against CD71 (transferrin receptor 1) or PARP at recommended dilutions, followed by appropriate HRP-conjugated secondary antibodies.

[3] = tested on: CD71 (transferrin receptor 1) in HCC cell lines; assay: Immunoblotting, CD71 (transferrin receptor 1) protein level; format: cell-based, human; conditions: six-day exposure to 10 μM or 30 μM; all four HCC cell lines
Method: as §1, §2

Compound: Cc1occc(=O)c1[O-].Cc1occc(=O)c1[O-].Cc1occc(=O)c1[O-].[Ga+3] [gallium maltolate, tris(3-hydroxy-2-methyl-4H-pyran-4-onato)gallium]
- cellular morphology (apoptosis) [1]: indicative of apoptosis
- poly(ADP-ribose) polymerase (PARP) assay for apoptosis [2]: positive
- protein level of CD71 (transferrin receptor 1) [3]: dose-dependent increase
